The NIST ThermoML archive (doi:10.1016/j.fluid.2014.01.046)
Where “and” joins values, the source holds several entries; their conditions need not be identical. Identical values can stand only once. ± gives the expanded uncertainty stated by the source. Values belong to the compound of their own block, whether it stands above or below them.

Key:
[1] = 298.15 K; 101.33 kPa; Liquid; Vibrating tube method
[2] = xn = mol fraction of the nth substance listed; details: 298.15 K, 101 kPa, Liquid, Vibrating tube method

mass density [1]: 773.814 ± 2 kg/m3
SMILES: C1CCCCC1 [cyclohexane]

mass density [1]: 943.827 ± 2 kg/m3
SMILES: CN(C)C=O [dimethylformamide]

mass density ([2]; x1 = 0.0013): 773.912 ± 2 kg/m3
mass density ([2]; x1 = 0.0032): 774.059 ± 2 kg/m3
mass density ([2]; x1 = 0.00735): 774.39 ± 2 kg/m3
mass density ([2]; x1 = 0.00767): 774.433 ± 2 kg/m3
mass density ([2]; x1 = 0.0142): 774.963 ± 2 kg/m3
mass density ([2]; x1 = 0.0191): 775.4 ± 2 kg/m3
mass density ([2]; x1 = 0.0404): 777.361 ± 2 kg/m3
mass density ([2]; x1 = 0.0554): 778.816 ± 2 kg/m3
mass density ([2]; x1 = 0.8496): 906.747 ± 2 kg/m3
mass density ([2]; x1 = 0.8504): 906.951 ± 2 kg/m3
mass density ([2]; x1 = 0.8533): 907.513 ± 2 kg/m3
mass density ([2]; x1 = 0.8999): 918.584 ± 2 kg/m3
mass density ([2]; x1 = 0.9245): 924.576 ± 2 kg/m3
mass density ([2]; x1 = 0.969): 935.786 ± 2 kg/m3
SMILES: CN(C)C=O [dimethylformamide] + C1CCCCC1
mass density ([2]; x1 = 0.05): 778.28 ± 2 kg/m3 and 778.287 ± 2 kg/m3 and 778.289 ± 2 kg/m3

mass density [1]: 785.106 ± 2 kg/m3
SMILES: CCO [ethanol]
